Experimental findings from patent publication US6048873A, “Tetrahdroquinolin-2-one 6 or 7-yl, tetrahdroquinilin-2-thione 6 or 7-yl pentadienoic acid and related derivatives having retinoid-like biological activity” (Allergan Sales, Inc., priority 1998, dated 2000) are described below.

The target in experiment [1] is T1, RXRα (Homo sapiens, UniProt P19793).
T1 construct: expressed in transfected cells
T1 sequence (P19793 1-462): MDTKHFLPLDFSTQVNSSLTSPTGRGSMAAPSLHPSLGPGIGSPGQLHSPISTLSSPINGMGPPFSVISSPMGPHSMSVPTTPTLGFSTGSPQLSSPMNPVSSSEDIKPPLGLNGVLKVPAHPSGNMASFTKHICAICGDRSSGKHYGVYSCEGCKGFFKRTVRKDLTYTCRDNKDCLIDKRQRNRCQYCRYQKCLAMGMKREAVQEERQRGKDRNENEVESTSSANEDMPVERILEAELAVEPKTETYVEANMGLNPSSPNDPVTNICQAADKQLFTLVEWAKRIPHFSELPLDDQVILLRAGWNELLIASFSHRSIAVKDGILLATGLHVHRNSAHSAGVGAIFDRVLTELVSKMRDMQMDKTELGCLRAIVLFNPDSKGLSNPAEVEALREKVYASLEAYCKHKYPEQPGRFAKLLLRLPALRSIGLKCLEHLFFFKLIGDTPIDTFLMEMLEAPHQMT
Nature of the experiment: RXRα ligand binding (Table 1). Conditions: RXR α. An excerpt: (§1) Other assays described below, measure the ability of the compounds of the present invention to bind to, and/or activate various retinoid receptor subtypes. When in these assays a compound binds to a given receptor subtype and activates the transcription of a reporter gene through that subtype, then the compound is considered an agonist of that receptor subtype. […] In the below described assays the ability of the compounds to bind to RARα, RARβ, RARγ, RXRα, RXRβ and RXRγ receptors, and the ability or inability of the compounds to activate transcription of a reporter gene through these receptor subtypes can be tested. […] However, some of the compounds of the invention may behave as retinoid antagonists or partial antagonists and/or as inverse agonists. Because of the complex distribution of the different retinoid receptors in various organs of the mammalian body partial agonists and partial antagonists and compounds which have the characteristics of both may lend themselves to particularly useful therapeutic applications and may avoid serious side effects of conventional retinoid drugs.
(§2) A holoreceptor transactivation assay and a ligand binding assay which measure the antagonist/agonist like activity of the compounds of the invention, or their ability to bind to the several retinoid receptor subtypes, respectively, are described in published PCT Application No. WO WO93/11755 (particularly on pages 30-33 and 37-41) published on Jun. 24, 1993, the specification of which is also incorporated herein by reference. A detailed experimental procedure for holoreceptor transactivations has been described by Heyman et al. Cell 68, 397-406, (1992); Allegretto et al. J. Biol. Chem. 268, 26625-26633, and Mangelsdorf et al. The Retinoids: Biology, Chemistry and Medicine, pp 319-349, Raven Press Ltd., New York, which are expressly incorporated herein by reference. The results obtained in this assay are expressed in EC50 numbers, as they are also in the chimeric receptor transactivation assay. The results of ligand binding assay are expressed in Kd numbers. […]

The target in another experiment is T2, RXRβ (Mus musculus, UniProt P28704).
T2 construct: expressed in transfected cells
T2 sequence (P28704 1-520): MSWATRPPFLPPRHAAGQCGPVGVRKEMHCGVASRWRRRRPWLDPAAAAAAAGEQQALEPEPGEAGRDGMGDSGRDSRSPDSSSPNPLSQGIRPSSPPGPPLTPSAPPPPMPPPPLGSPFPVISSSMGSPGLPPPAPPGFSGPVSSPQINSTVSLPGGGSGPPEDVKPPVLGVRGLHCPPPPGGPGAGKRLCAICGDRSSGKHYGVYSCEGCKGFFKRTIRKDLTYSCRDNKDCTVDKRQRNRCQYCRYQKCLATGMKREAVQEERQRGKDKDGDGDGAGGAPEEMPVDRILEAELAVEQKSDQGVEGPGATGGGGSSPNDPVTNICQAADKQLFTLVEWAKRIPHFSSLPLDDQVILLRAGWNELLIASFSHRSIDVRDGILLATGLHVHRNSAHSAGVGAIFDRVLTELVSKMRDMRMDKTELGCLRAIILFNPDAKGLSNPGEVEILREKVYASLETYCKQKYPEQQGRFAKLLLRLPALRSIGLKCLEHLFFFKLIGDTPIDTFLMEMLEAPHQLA
Nature of the experiment: RXRβ receptor transactivation (Table 1). Conditions: RXR β; for Emax: read-out: % Eff. The experiment is classed as cell-based.
Source text: as §1
(§3) A holoreceptor transactivation assay and a ligand binding assay which measure the antagonist/agonist like activity of the compounds of the invention, or their ability to bind to the several retinoid receptor subtypes, respectively, are described in published PCT Application No. WO WO93/11755 (particularly on pages 30-33 and 37-41) published on Jun. 24, 1993, the specification of which is also incorporated herein by reference. A detailed experimental procedure for holoreceptor transactivations has been described by Heyman et al. Cell 68, 397-406, (1992); Allegretto et al. J. Biol. Chem. 268, 26625-26633, and Mangelsdorf et al. The Retinoids: Biology, Chemistry and Medicine, pp 319-349, Raven Press Ltd., New York, which are expressly incorporated herein by reference. The results obtained in this assay are expressed in EC50 numbers, as they are also in the chimeric receptor transactivation assay. The results of ligand binding assay are expressed in Kd numbers. (See Cheng et al. Biochemical Pharmacology Vol. 22 pp 3099-3108, expressly incorporated herein by reference.)

Experiment [2] deals with T3, RXRγ (Mus musculus, UniProt P28705).
T3 construct: expressed in transfected cells
T3 sequence (P28705 1-463): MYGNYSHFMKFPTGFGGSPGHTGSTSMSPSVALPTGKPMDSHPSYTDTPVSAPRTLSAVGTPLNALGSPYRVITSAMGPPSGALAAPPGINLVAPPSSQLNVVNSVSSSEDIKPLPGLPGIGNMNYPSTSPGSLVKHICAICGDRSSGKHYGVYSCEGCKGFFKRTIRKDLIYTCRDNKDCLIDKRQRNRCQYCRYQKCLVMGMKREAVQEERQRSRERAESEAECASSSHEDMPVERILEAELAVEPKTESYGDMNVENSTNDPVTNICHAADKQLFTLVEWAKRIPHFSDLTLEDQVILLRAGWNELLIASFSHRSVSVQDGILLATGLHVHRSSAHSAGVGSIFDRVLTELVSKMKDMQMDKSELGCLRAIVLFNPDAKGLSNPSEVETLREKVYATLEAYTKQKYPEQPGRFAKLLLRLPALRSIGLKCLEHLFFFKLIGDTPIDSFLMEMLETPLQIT
Briefly: RXRγ ligand binding (Table 1). Conditions: RXR γ.
Source text: as §1, §2

In a further experiment the target is T4, RARα (Homo sapiens, UniProt P10276).
T4 sequence (P10276 1-462): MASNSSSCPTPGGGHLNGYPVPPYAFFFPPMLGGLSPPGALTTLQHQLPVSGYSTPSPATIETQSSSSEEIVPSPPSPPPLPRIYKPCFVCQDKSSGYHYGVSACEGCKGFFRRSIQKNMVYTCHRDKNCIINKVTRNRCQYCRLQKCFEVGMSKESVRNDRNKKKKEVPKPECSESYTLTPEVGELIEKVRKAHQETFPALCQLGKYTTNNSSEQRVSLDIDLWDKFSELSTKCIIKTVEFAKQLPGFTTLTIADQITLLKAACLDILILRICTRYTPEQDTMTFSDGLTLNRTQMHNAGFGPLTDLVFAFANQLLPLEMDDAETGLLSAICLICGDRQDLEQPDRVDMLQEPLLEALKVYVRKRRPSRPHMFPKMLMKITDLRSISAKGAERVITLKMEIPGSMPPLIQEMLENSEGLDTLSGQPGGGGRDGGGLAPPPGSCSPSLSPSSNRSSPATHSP
Nature of the experiment: RARα ligand binding (Table 2). Conditions: RAR α.
Source text: as §1, §2

Experiment [3] deals with T1, RXRα. Briefly: RXRα receptor transactivation (Table 1). The experiment is classed as cell-based. Conditions: RXR α; for Emax: read-out: % Eff.
Source text: as §1
The specification of U.S. Pat. No. 5,455,265 is hereby expressly incorporated by reference.
as §3

In another experiment the target is T5, RARγ (Homo sapiens, UniProt P13631).
T5 sequence (P13631 1-454): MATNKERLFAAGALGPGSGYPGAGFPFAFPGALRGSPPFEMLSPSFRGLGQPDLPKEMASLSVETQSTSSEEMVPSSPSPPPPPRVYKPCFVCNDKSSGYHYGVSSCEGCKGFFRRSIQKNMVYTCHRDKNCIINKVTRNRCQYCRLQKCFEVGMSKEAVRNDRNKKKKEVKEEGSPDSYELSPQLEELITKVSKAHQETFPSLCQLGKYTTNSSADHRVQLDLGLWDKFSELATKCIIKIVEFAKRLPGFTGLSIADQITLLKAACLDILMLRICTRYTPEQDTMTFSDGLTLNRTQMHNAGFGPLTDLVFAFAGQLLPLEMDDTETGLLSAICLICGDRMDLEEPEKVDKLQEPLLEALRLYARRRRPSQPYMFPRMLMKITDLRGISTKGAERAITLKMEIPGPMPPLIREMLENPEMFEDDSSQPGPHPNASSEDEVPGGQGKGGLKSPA
Briefly: RARγ ligand binding (Table 2). Conditions: RAR γ.
Source text: as §1, §2

Experiment [4] concerns the target T3, RXRγ. Nature of the experiment: RXRγ receptor transactivation (Table 1). Conditions: RXR γ; for Emax: read-out: % Eff. The experiment is classed as cell-based.
Source text: as §1, §3

A further experiment deals with T6, RARβ (Homo sapiens, UniProt P10826).
T6 sequence (P10826 1-448 isoform P10826-2): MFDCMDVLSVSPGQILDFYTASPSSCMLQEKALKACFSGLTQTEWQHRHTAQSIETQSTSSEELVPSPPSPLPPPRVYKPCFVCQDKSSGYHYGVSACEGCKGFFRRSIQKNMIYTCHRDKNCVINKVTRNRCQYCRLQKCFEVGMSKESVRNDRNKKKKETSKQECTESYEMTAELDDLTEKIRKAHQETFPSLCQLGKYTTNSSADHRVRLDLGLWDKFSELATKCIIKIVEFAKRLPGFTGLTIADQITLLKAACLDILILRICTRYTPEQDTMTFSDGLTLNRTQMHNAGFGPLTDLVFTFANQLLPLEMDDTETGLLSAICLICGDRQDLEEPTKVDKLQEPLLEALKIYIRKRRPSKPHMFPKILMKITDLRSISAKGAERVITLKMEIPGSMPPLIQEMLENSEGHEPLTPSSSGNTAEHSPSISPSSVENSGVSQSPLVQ
Nature of the experiment: RARβ ligand binding (Table 2). Conditions: RAR β.
Source text: as §1, §2

A word on the Kd: it is the concentration at which binding is half-saturated. Low readings indicate higher affinity, high ones lower affinity. One may read the EC50 as the concentration at which the effect is half-maximal. A higher EC50 goes with lower potency in that assay. On to `CC(/C=C/[C@@H]1C[C@]1(C)c1ccc2c(c1)C(C)(C)CC(=O)N2C(C)C)=C\C(=O)O` [Compound 1, (6S,7S)-7-(4,4-Dimethyl-2-oxo-1-(2-propyl)-1,2,3,4-tetrahydroquinolin-6-yl)-6,7-methano-3-methyl-octa-2E,4E-dienoic acid], for which the Kd at RXRα [1] is 1.4 nM; at RXRγ [2], 3.1 nM; on RARα it was greater than 10000 nM; at RARγ, greater than 10000 nM; on RARβ it was greater than 10000 nM. Besides, the EC50 at RXRβ was determined as 0.627 nM; at RXRα [3], 0.077 nM; at RXRγ [4], 0.085 nM. Besides, the results for the Emax on RXRβ, at RXRα [3] and at RXRγ [4] were 109%, 107% and 115%, respectively.
`CC(/C=C/[C@@H]1C[C@]1(C)c1ccc2c(c1)C(C)(C)CC(=S)N2C(C)C)=C\C(=O)O` [Compound 2, (6S,7S)-7-(4,4-Dimethyl-1-(2-propyl)-2-thioxo-1,2,3,4-tetrahydroquinolin-6-yl)-6,7-methano-3-methyl-octa-2E,4E-dienoic acid]: the Kd was found to be 0.97 nM at RXRα [1]; 10.5 nM at RXRγ [2]; 27000 nM at RARα; 25000 nM on RARγ; 31000 nM at RARβ. The EC50 on RXRβ is 0.376 nM; on RXRα [3], 0.064 nM; at RXRγ [4], 0.059 nM. The Emax came to 144% at RXRβ, 160% on RXRα [3] and 137% at RXRγ [4].
Consider `CC(/C=C/[C@@H]1C[C@]1(C)c1ccc2c(c1)C(C)(C)CCN2C(=O)OC(C)(C)C)=C\C(=O)O` [Compound 17], for which the Kd is 0.35 nM on RXRα [1]; 4.1 nM on RXRγ [2]; greater than 30000 nM on RARα; 12000 nM at RARγ; 10000 nM on RARβ. Besides, the figures for the EC50 at RXRβ, at RXRα [3] and on RXRγ [4] were 0.42 nM, 0.15 nM and 0.31 nM, respectively. Moreover, the Emax on RXRβ came to 115%; at RXRα [3] it was 110%; on RXRγ [4] it was 101%.
